Test results: patent US20240166765A1, “INFLAMMATORY DISEASE TREATMENT USING ANTI-TISSUE FACTOR ANTIBODIES” (Iconic Therapeutics LLC, priority 2020, published 2024)
Square brackets hold non-standard residues; d marks the D form. Peptide text beside a SMILES is read from it. * marks the point of attachment. Dolaproine = CO[C@@H]([C@@H]1CCCN1)[C@@H](C)C(=O)O; Dil = CC[C@H](C)[C@H](NC)[C@@H](CC(=O)O)OC; X1 = C[C@@H](N*)[C@@H](O)c1ccccc1; NMeV = CN[C@H](C(=O)O)C(C)C

Assays:
[1] = system: thrombin generation (relipidated TF in normal pooled plasma); assay: Thrombin generation assay (TGA) without antibody pre-incubation; type: biochemical, human; details: Table 44
Experimental: (§1) The TGA assay was performed using the calibrated-automated-thrombogram (CAT) instrument manufactured and distributed by STAGO. The test method design was equivalent to a standard CAT assay measurement, except that the plasma source was NPP in citrate/CTI. […] Relipidated TF was added to a 96-well assay plate, followed by addition of the antibody/NPP mixture. After a 10-min incubation or directly after combining the relipidated TF with antibody/NPP, thrombin generation was initiated by the addition of calcium and the thrombin substrate. The STAGO software was used to report the following parameters: Peak IIa (highest thrombin concentration generated [nM]); Lag Time (time to IIa generation [min]); ETP (endogenous thrombin potential, area under the curve [nM×min]); and ttPeak (time to Peak IIa [min]).
as §1, with “was normal pooled plasma (NPP)” for “was NPP”, “in citrate supplemented with corn trypsin inhibitor (citrate/CTI).” for “in citrate/CTI.”
(§2) TGA assay was performed using the calibrated-automated-thrombogram (CAT) instrument manufactured and distributed by STAGO (Diagnostica Stago SAS, Asnieres sur Seine, France). […] The anti-TF antibodies were titrated at 0, 10, 50 and 100 nM and mixed with NPP in citrate/CTI. Relipidated TF was added to a 96-well assay plate, followed by addition of the antibody/NPP mixture. After a 10-min incubation or directly after combining the relipidated TF with antibody/NPP, thrombin generation was initiated by the addition of calcium and the thrombin substrate. The STAGO software was used to report the following parameters: Peak IIa (highest thrombin concentration generated on the thrombin generation curve [nM]); Lag Time (time from assay start to the moment 10 nM of thrombin is formed [min]); ETP (endogenous thrombin potential, area under the curve [nM×min]); and ttPeak (time from assay start to Peak IIa [min]). […] As used herein, the term “thrombin generation assay” (TGA) refers to the TGA used in this example.

[2] = system: thrombin generation (relipidated TF in normal pooled plasma); assay: Thrombin generation assay (TGA) with 10 min antibody pre-incubation; type: biochemical, human
Experimental: as §1
as §1, with “was normal pooled plasma (NPP)” for “was NPP”, “in citrate supplemented with corn trypsin inhibitor (citrate/CTI).” for “in citrate/CTI.”
as §2

[3] = system: DSS-colitis model, C57BL/6 mice; assay: DSS-colitis model (2.5% DSS); type: in vivo, mouse
Text: In a colitis model, the administration of dextran sulfate sodium (DSS) causes colitis-like pathologies due to toxicity to colonic epithelial cells, which leads to a compromised mucosal function and infiltration of neutrophils, macrophages and lymphocytes. It results in loss of epithelial barrier function, secretion of proinflammatory cytokines and chemokines, and the influx of cells with cytotoxic potential, such as neutrophils and inflammatory macrophages. It is not considered a T-cell-mediated process in the art.
On Day 0 of the study, 8-12 week old male C57BL/6 mice received either sterile water ad libitum (Group 1, n=5) or 2.5% (w/v) DSS dissolved into sterile water ad libitum (Groups 2-5, n=10 mice per group).
On Day 8, all animals received sterile water for the remainder of the experiment and were euthanized on day 10.
Throughout the study clinical observations were made daily. Body weight was measured and recorded daily (from Day 0 to Day 10). Body condition was also evaluated visually daily using the scoring system illustrated in FIG. 2. The stool consistency was determined qualitatively and blood in stool was measured daily using a hemoccult stool bleeding test. […]
Following euthanasia, the animal was measured (length determined) and weighed. Weight/length ratio was calculated for each animal. The animals were dissected and the weight of their spleens was determined. […]

[4] = system: LPS-induced acute lung injury model, BALB/c mice; assay: LPS-induced acute lung injury model; type: in vivo, mouse; details: end of the study; 431D8 1 mg/kg IP; dexamethasone 3 mg/kg IP
Experimental: For this study, 48 male BALB/c mice were randomly and prospectively assigned to five groups: a group of six (n=6), a group of twelve (n=12), and three groups of ten (n=10 per group) animals each. On Day 0, animals in Groups 2-5 were dosed according to Table 63, 60 minutes prior to LPS administration. […] Animals were then released into a recovery cage until they woke up.
All animals were weighed and evaluated for respiratory distress daily (defined as an increase in respiratory rate and/or obvious respiratory effort). Animals with severe respiratory distress, or animals that lost greater than 20% of their total starting body weight, were euthanized within 2 hours of observation.
At 48 hours post-LPS challenge all animals were sacrificed with an overdose of xylazine and bronco-alveolar lavage (BAL) of the right lung only was performed (by tying off the left lung) for total and differential cell counts as well as total protein quantification and cytokine quantitation by Luminex. Lungs were then weighed (total lung weight and right lung weight). The right lung was frozen in liquid nitrogen and stored at −80° C. […] All slides were evaluated by a board-certified veterinary pathologist who used a scoring system to evaluate extent of lung injury and inflammation.

[5] = system: chimeric human-rat TF constructs expressed on HEK293 cells; assay: Epitope binning, chimeric TF construct mapping (live cell staining assay); type: binding
Experimental: To establish binding of the anti-human TF antibodies to the various TF constructs, HEK293 cells were transfected with a DNA plasmid that co-expresses the TF construct and a green fluorescent protein marker. For a subset of the antibodies, an antibody titration (a 12-point 1:3 dilution series starting at 250 nM) was evaluated on select TF constructs (See international PCT application PCT/US2019/012427 and U.S. utility application Ser. No. 16/959,652, incorporated herein by reference in their entirety). […] Two days after transfection, cells were collected from the tissue culture plate, stained with 15 μg/ml of the indicated anti-TF antibody, washed, stained with anti-human IgG-Fc Alexa Fluor 647 polyclonal antibody, washed, and stained with the viability dye 4′,6-Diamidino-2-Phenylindole, Dihydrochloride. Upon acquisition of 80,000 live events on a flow cytometer, live cells marked with the fluorescent marker were analyzed for the degree of staining by the anti-TF antibody. […] As used herein, the term “live cell staining assay” refers to the antibody binding assay used in this example.
When “Percentage antibody binding to TF construct relative to hTF” in Tables 51 and 52 was less than 50%, the antibody was considered a non-binder (0) in Tables 53 and 54.

HUVECs = assay: G2/M arrest (phospho-Histone H3) in HUVECs; type: cell-based, human; details: HCT-116 cells and HUVECs
Experimental: To further understand the resistance of endothelial cells to anti-TF ADCs, cell cycle progression was evaluated 24 h after addition of the cytokines and TF-specific ADCs. Arrest at the G2/M phase of the cell cycle was analyzed as previously described in Theunissen et al, Methods Enzymol, 2006, 409:251-284. Briefly, low-passage HUVECs (Lifeline Cell Technologies, Frederick, MD, USA), propagated in VascuLife VEGF-Mv Endothelial media (Lifeline Cell Technologies), and HCT-116 cells were seeded on 12-well plates. The next day, media was removed and replaced with fresh media (no cytokines) or media containing 5 […] IL1-beta, 25 ng/mL TNF-alpha and 50 ng/mL VEGF (with cytokines). A titration of MMAE-linked ADCs or free MMAE was added to the cells. After 24 h of treatment, cells were fixed in ice-cold 70% ethanol. Subsequently, the cells were washed with flow cytometry buffer (PBS, 1% FBS, 0.1% Triton) and stained for 1 h with a 1:100 dilution of phospho-Histone H3 (Ser10) (D2C8 PE Conjugate, Cell Signaling Technology). After 2 washes, the cells were treated for 20 min with 100 μg/mL PureLink RNAse A (ThermoFisher Scientific), followed by the addition of the viability dye TO-PRO-3 Iodide (ThermoFisher Scientific). 40,000 events were collected on a Novocyte flow cytometer. In the Flowjo data analysis software cell doublets and aneuploid cells were excluded. […]

10H10: previously described TF-specific antibody [reference compound]
ETP ([1]; Ab conc. 10 nM): 2036 nM·min | ETP ([1]; Ab conc. 50 nM): 1978 nM·min | ETP ([1]; Ab conc. 100 nM): 1945 nM·min | ETP ([2]; Ab conc. 10 nM): 1807 nM·min | ETP ([2]; Ab conc. 50 nM): 1754 nM·min | ETP ([2]; Ab conc. 100 nM): 1795 nM·min

Cyclosporine [CsA, reference compound]
body condition score ([3]; after Day 7): most significant deterioration in body condition | weight loss relative to baseline ([3]; by Day 4, CsA 80 mg/kg once daily oral gavage): ~20%

Dexamethasone [reference compound]
weight loss relative to baseline [4]: about 2%

5G9: previously described TF-specific antibody
ETP ([1]; Ab conc. 10 nM): 1176 nM·min | Antibody binding to TF construct ([5]; Table 53, construct rTF): 0 (less than 50%, the antibody was considered a non-binder (0)) | Antibody binding to TF construct ([5]; Table 54, construct rTF): 0 (less than 50%, the antibody was considered a non-binder (0)) | Constructs not bound by antibody ([5]; chimeric human-rat TF constructs): rTF, h1-107_r, h108-219_r, h159-219_r, h159-189_r, h159-174_r, h167-174_r, h190-219_r | Antibody binding to TF construct ([5]; construct h78-107_r (21), human segment replaced by rat segment): 1 (between 50% and 150%, the antibody was considered a binder (1)) | Antibody binding to TF construct ([5]; construct h108-219_r (46), human segment replaced by rat segment): 0 (less than 50%, the antibody was considered a non-binder (0)) | Antibody binding to TF construct ([5]; construct h159-219_r (27), human segment replaced by rat segment): 0 (less than 50%, the antibody was considered a non-binder (0)) | Antibody binding to TF construct ([5]; construct r141-194_h (rat amino acid segment replaced by human segment, 20 amino acid changes)): 0 (less than 50%, the antibody was considered a non-binder (0)) | Percent antibody binding to TF construct relative to hTF ([5]; construct r141-194_h (rat amino acid segment replaced by human segment, 20 amino acid changes), 15 μg/ml antibody): 32%

CC[C@H](C)[C@@H]([C@@H](CC(=O)N1CCC[C@H]1[C@H](OC)[C@@H](C)C(=O)N[C@H](C)[C@@H](O)c1ccccc1)OC)N(C)C(=O)[C@@H](NC(=O)[C@@H](NC)C(C)C)C(C)C [MMAE, monomethyl auristatin E] (H-[NMeV]V[Dil][Dolaproine]-X1)
phosphorylation of histone H3 (HUVECs): increase the phosphorylation of histone H3 to a similar extent in both HCT-116 cells and HUVECs
